# Test results taken from patent US11554171B2, “Compounds and methods for the targeted degradation of bromodomain-containing proteins” (Arvinas Operations, Inc., priority 2015, dated 2023).
# Tested on: c-myc in 22RV-1 cells
# Test: Human c-myc ELISA assay
# Format: cell-based
# Conditions: Homo sapiens; for Emax: 22Rv1, 18 h, read-out: Degradation of BRD4: Maximum inhibition (%) c-Myc ELISA in 22RV1 cells; for DC50: 22Rv1, read-out: Degradation of BRD4: DC50 (uM) c-Myc ELISA in 22RV1 cells
# Experimental: 22RV-1 cells are seeded at 30,000 cells/well at a volume of 75 μL/well in RPMI+10% FBS media in 96-well plates and grown overnight at 37 C. Cells are dosed with compounds at 4× concentration diluted in 0.4% DMSO; compounds are serially diluted 1:3 for 8-point dose curve. 25 ul of compounds is added to cells for a final concentration starting at 300 nM-0.3 nM or 1 uM-1 nM in 0.1% DMSO and incubated for 18 hrs. Media is aspirated, cells washed 1× with PBS and aspirated. Cells are lysed in 50 ul RIPA buffer (50 mM Tris pH8, 150 mM NaCl, 1% Tx-100, 0.1% SDS, 0.5% sodium deoxycholate) supplemented with protease and phosphatase inhibitors. Plates are incubated on ice for 15 minutes then centrifuged at 4 C for 10 min at 4000 rpm. Add 50 ul of cleared lysate from 96-well assay plate into 96-well c-myc ELISA plate (Novex, Life Technologies Catalog #KH02041). Reconstitute c-myc standard with standard diluent buffer; standard curve range is 333 pg/ml-0 pg/ml, diluted 1:2 for 8-point dose curve. The rest of the assay was performed following the protocol from the c-myc ELISA kit. Data is analyzed and plotted using GraphPad Prism software. Compounds described in this application were assayed and c-myc suppression potency is listed in the following Table (A: DC50<10 nM; B: DC50 10-100 nM; C: DC50: 100-1000 nM; D: DC50>1000 nM)
Compound,Emax,DC50
CCc1nnc2n1-c1sc(C)c(C)c1C(c1ccc(Cl)cc1)=N[C@H]2CC(=O)Nc1ccc(OCCCOCCCOCC(=O)N[C@H](C(=O)N2C[C@H](O)C[C@H]2C(=O)NCc2ccc(-c3scnc3C)cc2)C(C)(C)C)cc1 [Example 47],89%,0.1 to 1 µM
"Cc1ncsc1-c1ccc([C@H](C)NC(=O)[C@@H]2C[C@@H](O)CN2C(=O)[C@@H](NC(=O)c2cc3cc(OCCNC(=O)C[C@@H]4N=C(c5ccc(Cl)cc5)c5c(sc(C)c5C)-n5c(C)nnc54)ccc3o2)C(C)(C)C)cc1 [Example 165, (2S,4R)-1-[(2S)-2-{[5-(2-{2-[(9S)-7-(4-chlorophenyl)-4,5,13-trimethyl-3-thia-1,8,11,12-tetraazatricyclo[8.3.0.0^2,^6]trideca-2(6),4,7,10,12-pentaen-9-yl]acetamido}ethoxy)-1-benzofuran-2-yl]formamido}-3,3-dimethylbutanoyl]-4-hydroxy-N-[(1S)-1-[4-(4-methyl-1,3-thiazol-5-yl)phenyl]ethyl]pyrrolidine-2-carboxamide]",97%,< 0.01 µM
Cc1noc(-c2ccc([C@H](C)NC(=O)[C@@H]3C[C@@H](O)CN3C(=O)[C@@H](NC(=O)Cc3ccc(O[C@H]4C[C@H](NC(=O)C[C@@H]5N=C(c6ccc(Cl)cc6)c6c(sc(C)c6C)-n6c(C)nnc65)C4)cc3)C(C)(C)C)cc2)n1 [Example 275],50.1%,0.1 to 1 µM
"Cc1ncsc1-c1ccc([C@H](C)NC(=O)[C@@H]2C[C@@H](O)CN2C(=O)[C@@H](NC(=O)CN2C[C@@H](C)N(C3CC4(C3)CN(C(=O)C[C@@H]3N=C(c5ccc(Cl)cc5)c5c(sc(C)c5C)-n5c(C)nnc53)C4)C[C@@H]2C)C(C)(C)C)cc1 [Example 357, (2S,4R)-1-[(2S)-2-{2-[(2S,5R)-4-(2-{2-[(9S)-7-(4-chlorophenyl)-4,5,13-trimethyl-3-thia-1,8,11,12-tetraazatricyclo[8.3.0.0^2,^6]trideca-2(6),4,7,10,12-pentaen-9-yl]acetyl}-2-azaspiro[3.3]heptan-6-yl)-2,5-dimethylpiperazin-1-yl]acetamido}-3,3-dimethylbutanoyl}-4-hydroxy-N-[(1S)-1-[4-(4-methyl-1,3-thiazol-5-yl)phenyl]ethyl]pyrrolidine-2-carboxamide]",100%,0.01 to 0.1 µM
Cc1ncsc1-c1ccc(CNC(=O)[C@@H]2C[C@@H](O)CN2C(=O)[C@H](C(C)C)n2cc(-c3ccnc(O[C@@H](C)CNC(=O)C[C@@H]4N=C(c5ccc(Cl)cc5)c5c(sc(C)c5C)-n5c(C)nnc54)c3)cn2)cc1 [Example 180],98.5%,0.01 to 0.1 µM
Cc1ncsc1-c1ccc([C@H](C)NC(=O)[C@@H]2C[C@@H](O)CN2C(=O)[C@@H](NC(=O)CN2CCN(C3CC4(C3)CN(C(=O)C[C@@H]3N=C(c5ccc(Cl)cc5)c5c(sc(C)c5C)-n5c(C)nnc53)C4)C[C@@H]2C)C(C)(C)C)cc1 [Example 358],> 90%,0.01 to 0.1 µM
Cc1ncsc1-c1ccc(CNC(=O)[C@@H]2C[C@@H](O)CN2C(=O)[C@@H](NC(=O)COCCCCOc2cccc(NC(=O)C[C@@H]3N=C(c4ccc(Cl)cc4)c4c(sc(C)c4C)-n4c(C)nnc43)c2)C(C)(C)C)cc1 [Example 126],99%,< 0.01 µM
Cc1ncoc1-c1ccc([C@H](C)NC(=O)[C@@H]2C[C@@H](O)CN2C(=O)C(C(C)C)n2cc(-c3cccc(O[C@H]4C[C@@H](NC(=O)C[C@@H]5N=C(c6ccc(Cl)cc6)c6c(sc(C)c6C)-n6c(C)nnc65)C4)c3)cn2)cc1 (some centres unmarked) [Example 286],93%,0.01 to 0.1 µM
Cc1ncsc1-c1ccc([C@H](C)NC(=O)[C@H]2C[C@H](O)CN2C(=O)[C@@H](NC(=O)CN2CCC(O[C@H]3C[C@H](NC(=O)C[C@@H]4N=C(c5ccc(Cl)cc5)c5c(sc(C)c5C)-n5c(C)nnc54)C3)CC2)C(C)(C)C)cc1 [Example 345],< 5%,> 1 µM
Cc1sc2c(c1C)C(c1ccc(Cl)cc1)=N[C@@H](CC(=O)N[C@H]1C[C@@H](Oc3cc(-c4cnn([C@@H](C(=O)N5C[C@H](O)C[C@H]5C(=O)N[C@@H](C)c5ccc(-c6nccn6C)cc5)C(C)C)c4)ccn3)C1)c1nnc(C)n1-2 [Example 292],10%,> 1 µM
"Cc1ncsc1-c1ccc([C@H](C)NC(=O)[C@@H]2C[C@@H](O)CN2C(=O)[C@@H](NC(=O)Cc2ccc(O[C@H]3C[C@H](NC(=O)C[C@@H]4N=C(c5ccc(Cl)cc5)c5c(sc(C)c5C)-n5c(C)nnc54)C3)cc2)C(C)(C)C)cc1 [Example 193, (2S,4R)-1-[(2S)-3,3-dimethyl-2-(2-{4-[(1,3trans)-3-{2-[(9S)-7-(4-chlorophenyl)-4,5,13-trimethyl-3-thia-1,8,11,12-tetraazatricyclo[8.3.0.0^2,^6]trideca-2(6),4,7,10,12-pentaen-9-yl]acetamido}cyclobutoxy]phenyl}acetamido)butanoyl]-4-hydroxy-N-[(1S)-1-[4-(4-methyl-1,3-thiazol-5-yl)phenyl]ethyl]pyrrolidine-2-carboxamide]",100%,< 0.01 µM
Cc1ncsc1-c1ccc(CNC(=O)[C@@H]2C[C@@H](O)CN2C(=O)[C@@H](NC(=O)COc2ccc(O[C@H]3C[C@H](NC(=O)C[C@@H]4N=C(c5ccc(Cl)cc5)c5c(sc(C)c5C)-n5c(C)nnc54)C3)nc2)C(C)(C)C)cc1 [Example 140],98%,< 0.01 µM
Cc1ncsc1-c1ccc([C@H](C)NC(=O)[C@@H]2C[C@@H](O)CN2C(=O)[C@@H](NC(=O)COCCCN2CCN(C(=O)C[C@@H]3N=C(c4ccc(Cl)cc4)c4c(sc(C)c4C)-n4c(C)nnc43)CC2)C(C)(C)C)cc1 [Example 313],87.5%,0.01 to 0.1 µM
Cc1ncsc1-c1ccc([C@H](C)NC(=O)[C@@H]2C[C@@H](O)CN2C(=O)[C@@H](NC(=O)CCCCC(=O)N2CCN(C(=O)C[C@@H]3N=C(c4ccc(Cl)cc4)c4c(sc(C)c4C)-n4c(C)nnc43)CC2)C(C)(C)C)cc1 [Example 319],78.5%,0.1 to 1 µM
Cc1ncsc1-c1ccc([C@H](C)NC(=O)[C@H]2C[C@@H](O)CN2C(=O)[C@@H](NC(=O)CN2CCC(O[C@H]3C[C@H](NC(=O)C[C@@H]4N=C(c5ccc(Cl)cc5)c5c(sc(C)c5C)-n5c(C)nnc54)C3)CC2)C(C)(C)C)cc1 [Example 347],< 5%,> 1 µM
Cc1ncoc1-c1ccc([C@H](C)NC(=O)[C@@H]2C[C@@H](O)CN2C(=O)[C@@H](C(C)C)n2cc(-c3cccc(O[C@H]4C[C@@H](NC(=O)C[C@@H]5N=C(c6ccc(Cl)cc6)c6c(sc(C)c6C)-n6c(C)nnc65)C4)c3)cn2)cc1 [Example 285],44.4%,> 1 µM
Cc1ncsc1-c1ccc(CNC(=O)[C@@H]2C[C@@H](O)CN2C(=O)[C@@H](NC(=O)COCCOCCOCCOCCOCCNC(=O)C[C@@H]2N=C(c3ccc(Cl)cc3)c3c(sc(C)c3C)-n3c(C)nnc32)C(C)(C)C)cc1 [Example 7],93%,0.1 to 1 µM
Cc1ncsc1-c1ccc([C@H](C)NC(=O)[C@@H]2C[C@@H](O)CN2C(=O)[C@@H](NC(=O)CN2CCN(C3CC4(C3)CN(C(=O)C[C@@H]3N=C(c5ccc(Cl)cc5)c5c(sc(C)c5C)-n5c(C)nnc53)C4)CC2)C(C)(C)C)cc1 [Example 360],> 90%,0.1 to 1 µM
Cc1ncsc1-c1ccc([C@H](C)NC(=O)[C@@H]2C[C@@H](OC(=O)CCN)CN2C(=O)[C@@H](NC(=O)c2cc3cc(O[C@H]4C[C@@H](NC(=O)C[C@@H]5N=C(c6ccc(Cl)cc6)c6c(sc(C)c6C)-n6c(C)nnc65)C4)ccc3o2)C(C)(C)C)cc1 [Example 339],97%,< 0.01 µM
